Test results taken from patent US5691338A, “1,2-dithiole-3 thiones for the treatment of reverse transcriptase-dependent viral infections” (priority 1995, dated 1997).

Columns and labels:
[1] = system: HIV-1 (HTLVIIIB); test: microbe, parasite or virus in culture; settings: Human immunodeficiency virus 1, H9, read-out: median dose (p24 release)
Experimental: The effects for test compounds were assessed by means of both IFA and p24 release. In general, the following protocol was followed: H9 cells were infected with HIV-1 at 1000 50% infective doses of viruses/10^6 cells. Virus was allowed to adsorb for 1 h, after which unadsorbed virus was removed by centrifugation. The cells were resuspended and washed twice with PBS (without Ca^+2 or Mg^+2 salts) and centrifuged to collect the cell pellet (150×g×10 min). Cells were suspended in fresh medium and added at a final cell density of 500,000 cells/ml in a 96-well plate with media containing 0.1% DMSO and various concentrations of test compounds. The cells were re-fed freshly prepared media containing 0.1% DMSO±test compounds on day four (for preinduction experiments, cells were exposed to inducers on days -2, 0, and +4 days relative to infection). After seven days, cells were examined for cytoxicity by trypan blue exclusion, the degree of infection with HIV-1 by IFA, and the supernatants were assayed for p24 levels according to the manufacturer's directions. The IFA procedure can be summarized as follows: The cells were washed twice in PBS and were placed in 5 mm 12-well slides. After allowing the slides to dry and fixing the cells with acetone for 5 min, 10 μl of HIV-1 positive serum in 40 μl PBS was added to each well and allowed to incubate at 37° C. for 30 min. After incubation, the slides were washed twice with PBS and incubated at 37° C. for 30 min with 2.5 μl goat anti-human IgG-fluorescein isothiocyanate conjugate in 50 μl PBS containing 0.01% Evans Blue per well. The slides were then washed twice with PBS, dried, and mounted with 50% glycerol in PBS, and scored for the percentage of fluorescent cells by fluorescent microscopy.
Statistical significance for GSH and QR levels were established by the unpaired t test using the INSTAT statistics program (Graphpad, San Diego, Calif.). The Ki of oltipraz was determined by performing Segal transformations (26) of Dixon plots. […] Calculations were performed on spreadsheets using Lotus 1-2-3 software (Cambridge, Mass.).

[2] = system: HIV-1; settings: cited from earlier work
[3] = system: HIV-1; settings: HIV-1 infected patients, pharmacokinetics study; cited from earlier work

| Compound | IC50 [1] | synergy with anti-HIV-1 drugs ([2]; in vitro, Kong et al.) | inhibition of HIV-1 replication ([2]; cultured cells) | effect on surrogate markers for HIV-1 [3] |
| --- | --- | --- | --- | --- |
| Cc1cn([C@H]2C[C@H](N=[N+]=[N-])[C@@H](CO)O2)c(=O)[nH]c1=O [AZT, 3'-azido-3'-deoxythymidine] | 45 nM | synergistic with anti-HIV-1 drugs such as phosphonoformate | – | – |
| CC(=O)N[C@@H](CS)C(=O)O [N-acetylcysteine] | – | – | effectively inhibit the replication of HIV-1 | did not alter surrogate markers for HIV-1 |
